Laboratory results: ChEMBL document CHEMBL5212743, “Selectivity Literature for EUbOPEN Chemogenomics Library wave 3” (2023)

Key:
[1] = target: Dual specificity protein kinase TTK (Homo sapiens) (UniProt P33981); test: Selectivity interaction (KinomeScan (DiscoverX)) EUB0000138c TTK; details: at 100 nM
[2] = target: T1, Dual specificity mitogen-activated protein kinase kinase 5 (Homo sapiens, UniProt Q13163); test: Selectivity interaction (NanoBRET assay (HEK293T cells)) EUB0000305b MAP2K5
T1 sequence (Q13163 whole entry): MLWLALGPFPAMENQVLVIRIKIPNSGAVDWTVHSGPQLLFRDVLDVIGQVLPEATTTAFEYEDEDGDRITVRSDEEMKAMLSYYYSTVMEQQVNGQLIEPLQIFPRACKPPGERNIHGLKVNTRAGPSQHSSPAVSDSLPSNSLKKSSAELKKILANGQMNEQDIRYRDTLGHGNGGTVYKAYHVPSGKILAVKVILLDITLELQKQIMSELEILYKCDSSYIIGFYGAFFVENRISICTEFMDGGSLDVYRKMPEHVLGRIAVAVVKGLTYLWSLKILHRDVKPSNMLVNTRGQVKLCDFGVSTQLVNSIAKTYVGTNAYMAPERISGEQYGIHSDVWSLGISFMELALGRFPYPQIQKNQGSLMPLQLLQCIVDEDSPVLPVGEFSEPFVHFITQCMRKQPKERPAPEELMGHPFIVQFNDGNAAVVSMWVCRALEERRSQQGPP

[3] = target: Mitogen-activated protein kinase kinase kinase 19 (Homo sapiens, UniProt Q56UN5); test: Selectivity interaction (NanoBRET assay (HEK293T cells)) EUB0000305b MAP3K19
[4] = target: Serine/threonine-protein kinase 17A (Homo sapiens) (UniProt Q9UEE5); test: Selectivity interaction (KinomeScan (DiscoverX)) EUB0000305b STK17A; details: at 100 nM
Chain of Serine/threonine-protein kinase 17A (Homo sapiens) (Q9UEE5 whole entry): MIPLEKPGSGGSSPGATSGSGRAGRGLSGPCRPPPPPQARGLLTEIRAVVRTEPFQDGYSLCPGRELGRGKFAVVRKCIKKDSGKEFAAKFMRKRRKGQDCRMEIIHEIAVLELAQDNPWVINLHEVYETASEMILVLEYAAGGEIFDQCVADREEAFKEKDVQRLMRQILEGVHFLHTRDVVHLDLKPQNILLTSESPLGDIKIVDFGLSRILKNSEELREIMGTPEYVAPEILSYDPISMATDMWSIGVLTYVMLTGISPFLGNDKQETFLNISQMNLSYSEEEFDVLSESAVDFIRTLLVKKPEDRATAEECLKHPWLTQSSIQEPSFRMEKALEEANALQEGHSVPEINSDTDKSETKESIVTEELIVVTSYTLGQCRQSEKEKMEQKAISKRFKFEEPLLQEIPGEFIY

[5] = target: Proto-oncogene tyrosine-protein kinase Src (Homo sapiens, UniProt P12931); details: at 1 µM
Chain of Proto-oncogene tyrosine-protein kinase Src (P12931 whole entry, looked up): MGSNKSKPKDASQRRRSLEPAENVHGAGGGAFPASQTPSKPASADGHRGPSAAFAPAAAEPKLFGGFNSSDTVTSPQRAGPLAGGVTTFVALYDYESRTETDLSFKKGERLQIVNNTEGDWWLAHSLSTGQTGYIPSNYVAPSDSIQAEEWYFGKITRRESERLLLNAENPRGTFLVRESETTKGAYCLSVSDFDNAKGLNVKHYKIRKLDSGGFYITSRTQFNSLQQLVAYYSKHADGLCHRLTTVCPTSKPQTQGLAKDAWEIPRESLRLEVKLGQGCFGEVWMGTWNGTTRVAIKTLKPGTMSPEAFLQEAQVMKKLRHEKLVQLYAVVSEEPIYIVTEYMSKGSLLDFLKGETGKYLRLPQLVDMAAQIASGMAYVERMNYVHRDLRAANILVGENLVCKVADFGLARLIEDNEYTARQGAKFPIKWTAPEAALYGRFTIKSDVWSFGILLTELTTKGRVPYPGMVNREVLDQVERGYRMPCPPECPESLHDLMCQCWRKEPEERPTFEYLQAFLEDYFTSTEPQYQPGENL

[6] = target: Serine/threonine-protein kinase Chk2 (Homo sapiens, UniProt O96017); details: at 1 µM
[7] = target: Tyrosine-protein kinase HCK (Homo sapiens, UniProt P08631); details: at 1 µM
[8] = target: Tyrosine-protein kinase receptor Tie-1 (Homo sapiens) (UniProt P35590); details: at 1 µM
Chain of Tyrosine-protein kinase receptor Tie-1 (Homo sapiens) (P35590 whole entry): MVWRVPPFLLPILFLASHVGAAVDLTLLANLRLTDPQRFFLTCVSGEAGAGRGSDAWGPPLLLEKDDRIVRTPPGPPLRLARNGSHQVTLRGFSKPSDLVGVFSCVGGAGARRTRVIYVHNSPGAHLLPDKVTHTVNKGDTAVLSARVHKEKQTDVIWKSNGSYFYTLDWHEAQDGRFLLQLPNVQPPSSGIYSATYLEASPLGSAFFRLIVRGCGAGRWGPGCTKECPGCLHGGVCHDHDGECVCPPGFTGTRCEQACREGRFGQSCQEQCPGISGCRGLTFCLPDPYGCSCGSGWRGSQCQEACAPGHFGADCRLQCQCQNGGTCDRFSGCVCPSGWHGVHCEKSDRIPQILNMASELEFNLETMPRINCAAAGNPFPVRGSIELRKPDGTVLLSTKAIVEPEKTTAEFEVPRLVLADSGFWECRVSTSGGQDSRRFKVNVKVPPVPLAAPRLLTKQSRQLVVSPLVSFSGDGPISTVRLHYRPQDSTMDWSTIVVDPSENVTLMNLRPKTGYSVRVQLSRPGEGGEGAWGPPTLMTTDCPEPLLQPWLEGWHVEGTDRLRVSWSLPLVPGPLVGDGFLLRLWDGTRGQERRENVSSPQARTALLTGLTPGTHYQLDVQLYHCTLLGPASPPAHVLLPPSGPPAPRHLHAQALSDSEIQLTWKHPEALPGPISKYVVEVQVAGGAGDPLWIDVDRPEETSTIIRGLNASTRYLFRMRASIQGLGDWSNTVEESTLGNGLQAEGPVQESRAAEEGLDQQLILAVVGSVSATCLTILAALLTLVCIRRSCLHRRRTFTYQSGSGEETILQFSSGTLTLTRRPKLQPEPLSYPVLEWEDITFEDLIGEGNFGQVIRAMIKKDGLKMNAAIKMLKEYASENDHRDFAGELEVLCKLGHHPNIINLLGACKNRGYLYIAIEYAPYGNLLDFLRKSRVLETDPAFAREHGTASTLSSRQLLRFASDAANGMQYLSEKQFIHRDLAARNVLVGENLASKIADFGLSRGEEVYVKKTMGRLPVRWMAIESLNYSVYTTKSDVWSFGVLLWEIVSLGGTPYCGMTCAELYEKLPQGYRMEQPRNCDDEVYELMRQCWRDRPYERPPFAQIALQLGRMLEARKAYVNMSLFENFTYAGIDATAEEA

[9] = target: Mitogen-activated protein kinase kinase kinase kinase 5 (Homo sapiens) (UniProt Q9Y4K4); details: at 1 µM
Chain of Mitogen-activated protein kinase kinase kinase kinase 5 (Homo sapiens) (Q9Y4K4 whole entry, looked up): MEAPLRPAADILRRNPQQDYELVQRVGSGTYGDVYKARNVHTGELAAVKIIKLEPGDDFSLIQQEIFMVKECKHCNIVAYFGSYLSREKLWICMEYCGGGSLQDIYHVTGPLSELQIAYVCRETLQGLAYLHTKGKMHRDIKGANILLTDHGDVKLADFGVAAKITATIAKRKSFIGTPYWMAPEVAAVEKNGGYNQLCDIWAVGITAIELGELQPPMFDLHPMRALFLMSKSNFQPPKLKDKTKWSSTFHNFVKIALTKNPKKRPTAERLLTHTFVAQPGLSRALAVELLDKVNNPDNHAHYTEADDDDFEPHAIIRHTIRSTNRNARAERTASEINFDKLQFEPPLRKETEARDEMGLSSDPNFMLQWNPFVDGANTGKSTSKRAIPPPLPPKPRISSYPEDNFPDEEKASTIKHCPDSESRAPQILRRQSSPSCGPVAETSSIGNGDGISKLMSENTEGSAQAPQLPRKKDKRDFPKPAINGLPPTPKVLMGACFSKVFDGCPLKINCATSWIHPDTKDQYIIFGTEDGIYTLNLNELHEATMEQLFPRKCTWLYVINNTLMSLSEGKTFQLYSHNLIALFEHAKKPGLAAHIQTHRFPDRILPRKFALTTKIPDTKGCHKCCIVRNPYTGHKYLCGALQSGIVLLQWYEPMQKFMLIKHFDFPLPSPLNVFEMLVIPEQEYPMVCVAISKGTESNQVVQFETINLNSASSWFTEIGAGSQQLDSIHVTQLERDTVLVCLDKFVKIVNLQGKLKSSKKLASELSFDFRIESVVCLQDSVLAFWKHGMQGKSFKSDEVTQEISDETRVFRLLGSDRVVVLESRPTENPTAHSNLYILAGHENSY

[10] = target: RAC-alpha serine/threonine-protein kinase (Homo sapiens, UniProt P31749); test: Selectivity interaction (Kinase panel (University of Dundee)) EUB0000169b AKT1; details: at 10 µM
[11] = target: Casein kinase I isoform alpha (Homo sapiens) (UniProt P48729); details: at 10 µM
[12] = target: Serine/threonine-protein phosphatase 2A activator (Homo sapiens) (UniProt Q15257); test: Selectivity interaction (Kinase panel (University of Dundee)) EUB0000169b PTPA; details: at 10 µM
[13] = target: Rho-associated protein kinase 2 (Homo sapiens) (UniProt O75116); test: Selectivity interaction (Kinase panel (University of Dundee)) EUB0000169b ROCK2; details: at 10 µM
Chain of Rho-associated protein kinase 2 (Homo sapiens) (O75116 whole entry, looked up): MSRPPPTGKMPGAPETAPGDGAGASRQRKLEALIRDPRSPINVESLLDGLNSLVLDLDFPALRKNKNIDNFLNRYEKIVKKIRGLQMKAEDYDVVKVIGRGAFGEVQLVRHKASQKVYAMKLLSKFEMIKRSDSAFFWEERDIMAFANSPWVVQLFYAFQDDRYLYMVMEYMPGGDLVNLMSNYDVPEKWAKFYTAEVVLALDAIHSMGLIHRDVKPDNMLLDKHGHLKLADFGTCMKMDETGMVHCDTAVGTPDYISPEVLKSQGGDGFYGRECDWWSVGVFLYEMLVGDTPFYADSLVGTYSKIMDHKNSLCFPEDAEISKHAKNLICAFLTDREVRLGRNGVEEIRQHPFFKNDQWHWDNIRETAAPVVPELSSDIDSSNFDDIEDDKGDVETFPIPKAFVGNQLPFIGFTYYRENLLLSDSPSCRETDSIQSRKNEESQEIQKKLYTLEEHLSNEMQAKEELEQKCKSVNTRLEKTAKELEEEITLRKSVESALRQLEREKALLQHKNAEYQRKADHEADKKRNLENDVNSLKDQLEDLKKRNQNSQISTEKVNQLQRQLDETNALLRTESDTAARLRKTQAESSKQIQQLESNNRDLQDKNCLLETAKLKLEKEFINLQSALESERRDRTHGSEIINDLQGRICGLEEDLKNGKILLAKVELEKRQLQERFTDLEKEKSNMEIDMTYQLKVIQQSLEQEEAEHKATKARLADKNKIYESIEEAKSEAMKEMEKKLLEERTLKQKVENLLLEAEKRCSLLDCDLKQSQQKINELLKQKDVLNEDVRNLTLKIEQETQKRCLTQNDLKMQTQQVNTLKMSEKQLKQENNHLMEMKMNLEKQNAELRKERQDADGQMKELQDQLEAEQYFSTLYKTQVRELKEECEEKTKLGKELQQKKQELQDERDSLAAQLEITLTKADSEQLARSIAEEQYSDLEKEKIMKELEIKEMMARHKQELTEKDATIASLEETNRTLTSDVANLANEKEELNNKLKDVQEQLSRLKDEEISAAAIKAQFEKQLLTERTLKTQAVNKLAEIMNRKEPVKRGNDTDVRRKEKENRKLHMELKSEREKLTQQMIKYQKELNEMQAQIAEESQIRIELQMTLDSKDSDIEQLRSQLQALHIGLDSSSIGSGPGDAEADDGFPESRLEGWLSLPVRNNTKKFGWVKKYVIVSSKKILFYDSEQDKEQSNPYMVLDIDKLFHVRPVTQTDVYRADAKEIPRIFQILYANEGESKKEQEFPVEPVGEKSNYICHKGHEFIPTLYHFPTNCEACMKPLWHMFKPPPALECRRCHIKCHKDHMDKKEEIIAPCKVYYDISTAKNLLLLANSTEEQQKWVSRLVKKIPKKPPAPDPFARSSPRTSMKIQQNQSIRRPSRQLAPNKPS

[14] = target: Protein kinase C alpha type (Homo sapiens) (UniProt P17252); test: Selectivity interaction (Kinase panel (University of Dundee)) EUB0000169b PRKCA; details: at 10 µM
[15] = target: G protein-coupled receptor kinase 4 (Homo sapiens) (UniProt P32298); test: Selectivity interaction (KinomeScan (DiscoverX)) EUB0000702a GRK4; details: at 1 µM
[16] = target: T2, Mitogen-activated protein kinase 15 (Homo sapiens) (UniProt Q8TD08); test: Selectivity interaction (KinomeScan (DiscoverX)) EUB0000702a MAPK15; details: at 1 µM
T2 sequence (whole entry): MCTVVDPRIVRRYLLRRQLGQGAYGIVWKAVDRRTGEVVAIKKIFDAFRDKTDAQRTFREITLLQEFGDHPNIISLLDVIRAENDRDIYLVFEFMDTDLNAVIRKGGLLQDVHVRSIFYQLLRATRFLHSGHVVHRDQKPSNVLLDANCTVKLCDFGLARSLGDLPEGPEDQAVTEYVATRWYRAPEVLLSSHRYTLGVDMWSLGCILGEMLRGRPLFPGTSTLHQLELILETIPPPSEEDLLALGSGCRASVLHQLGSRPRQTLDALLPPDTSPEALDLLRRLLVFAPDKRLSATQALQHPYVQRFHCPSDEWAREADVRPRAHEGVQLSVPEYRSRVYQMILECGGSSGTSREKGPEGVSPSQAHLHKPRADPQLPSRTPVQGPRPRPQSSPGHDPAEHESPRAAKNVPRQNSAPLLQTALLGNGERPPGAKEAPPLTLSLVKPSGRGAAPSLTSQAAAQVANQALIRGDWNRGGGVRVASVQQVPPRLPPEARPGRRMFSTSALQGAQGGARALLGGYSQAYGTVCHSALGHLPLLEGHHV

[17] = target: T3, Gamma-aminobutyric acid receptor subunit alpha-1 (Homo sapiens, UniProt P14867); test: Selectivity interaction (GPCR panel (PDSP screen)) EUB0000702a GABRA1
T3 sequence (P14867 whole entry): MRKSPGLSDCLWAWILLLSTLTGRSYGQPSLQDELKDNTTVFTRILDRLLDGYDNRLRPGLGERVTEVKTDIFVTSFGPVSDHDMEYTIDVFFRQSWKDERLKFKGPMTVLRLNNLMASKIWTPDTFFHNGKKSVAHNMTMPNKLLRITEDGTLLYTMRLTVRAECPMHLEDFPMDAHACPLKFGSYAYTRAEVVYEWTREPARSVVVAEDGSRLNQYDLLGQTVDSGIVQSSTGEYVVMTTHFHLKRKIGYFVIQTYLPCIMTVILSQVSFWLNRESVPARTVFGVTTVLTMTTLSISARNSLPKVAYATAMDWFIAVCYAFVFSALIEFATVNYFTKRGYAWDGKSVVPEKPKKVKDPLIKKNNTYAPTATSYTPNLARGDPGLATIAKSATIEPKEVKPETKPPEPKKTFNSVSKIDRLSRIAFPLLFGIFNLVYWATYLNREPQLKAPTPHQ

[18] = target: Serine/threonine-protein kinase 16 (Homo sapiens, UniProt O75716); test: Selectivity interaction (KinomeScan (DiscoverX)) EUB0000702a STK16; details: at 1 µM
[19] = target: Serine/threonine-protein kinase PLK1 (Homo sapiens, UniProt P53350); test: Selectivity interaction (KinomeScan (DiscoverX)) EUB0000702a PLK1; details: at 1 µM
[20] = target: Phosphatidylinositol 4-phosphate 5-kinase type-1 gamma (Homo sapiens) (UniProt O60331); test: Selectivity interaction (KinomeScan (DiscoverX)) EUB0000178b PIP5K1C; details: at 1 µM
Chain of Phosphatidylinositol 4-phosphate 5-kinase type-1 gamma (Homo sapiens) (O60331 whole entry): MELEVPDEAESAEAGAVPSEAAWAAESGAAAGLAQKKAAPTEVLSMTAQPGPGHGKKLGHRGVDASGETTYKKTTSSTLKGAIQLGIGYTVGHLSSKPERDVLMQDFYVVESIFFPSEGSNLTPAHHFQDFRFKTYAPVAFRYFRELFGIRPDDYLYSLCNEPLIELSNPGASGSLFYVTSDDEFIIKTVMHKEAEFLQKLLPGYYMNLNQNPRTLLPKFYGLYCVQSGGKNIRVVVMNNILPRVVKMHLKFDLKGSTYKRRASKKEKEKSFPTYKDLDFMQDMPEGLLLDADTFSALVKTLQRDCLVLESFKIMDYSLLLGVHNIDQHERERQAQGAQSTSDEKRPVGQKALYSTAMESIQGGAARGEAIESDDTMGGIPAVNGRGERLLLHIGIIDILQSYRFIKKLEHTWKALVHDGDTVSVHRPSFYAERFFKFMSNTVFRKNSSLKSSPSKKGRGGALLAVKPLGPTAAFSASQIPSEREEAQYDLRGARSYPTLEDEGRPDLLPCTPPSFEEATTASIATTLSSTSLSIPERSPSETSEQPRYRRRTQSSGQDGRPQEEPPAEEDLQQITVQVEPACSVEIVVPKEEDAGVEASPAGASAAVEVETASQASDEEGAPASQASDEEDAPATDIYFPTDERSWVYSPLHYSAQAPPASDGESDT

[21] = target: Serine/threonine-protein kinase DCLK1 (Homo sapiens) (UniProt O15075); test: Selectivity interaction (KinomeScan (DiscoverX)) EUB0000178b DCLK1; details: at 1 µM
[22] = target: T4, Dual specificity mitogen-activated protein kinase kinase 5 (Homo sapiens) (UniProt Q13163); test: Selectivity interaction (KinomeScan (DiscoverX)) EUB0000698a MAP2K5; details: at 10 µM
T4 sequence (whole entry): T1 sequence (Q13163 whole entry)

SMILES: CNC(=O)c1ccc(Nc2ncc(C(F)(F)F)c(NCc3nccnc3N(C)S(C)(=O)=O)n2)cc1 [DEFACTINIB]
- % of control [1]: 8.3%

SMILES: C[C@H](c1ccnc(Nc2nc3ccc(-c4cc(N(C)C)ncn4)cc3[nH]2)c1)N1CCN(C(=O)CC(F)(F)F)CC1 [BAY-985]
- IC50 [2]: > 20 µM
- IC50 [3]: > 20 µM
- % of control [4]: 40%

SMILES: CCOc1cn(-c2ccc(F)cc2C)nc1C(=O)Nc1ccc(Oc2ccnc3cc(OC)c(OC)cc23)c(F)c1
- % of control [5]: < 10%
- % of control [6]: < 10%
- % of control [7]: < 10%
- % of control [8]: < 10%
- % of control [9]: < 10%

SMILES: CC[C@@H]1C(=O)N(C)c2cnc(Nc3ccc(C(=O)NC4CCN(C)CC4)cc3OC)nc2N1C1CCCC1
- % of control [10]: 90%
- % of control [11]: 56%
- % of control [12]: 56%
- % of control [13]: 98%
- % of control [14]: 103%

SMILES: CN(c1ccnc(CNc2nc(Nc3ccc4c(c3)CC(=O)N4)ncc2C(F)(F)F)n1)S(C)(=O)=O [PF-00911705]
- % of control [15]: 10%
- % of control [16]: 4.8%
- Ki [17]: 1.48 µM
- % of control [18]: 1.5%
- % of control [19]: 7.6%

SMILES: CN1C(=O)c2sccc2N(C)c2nc(Nc3ccc(S(N)(=O)=O)cc3)ncc21
- % of control [20]: 10%
- % of control [21]: 8.3%

SMILES: COc1cc2ncn(-c3cc(OCc4ccccc4C(F)(F)F)c(C(N)=O)s3)c2cc1OC [GW843682X]
- % of control [22]: 0.5%
